Measured values reported in a melting point compilation (Tetko et al.; mined from patent text by program, amines drawn as free bases though some values may be those of a salt).

Row | SMILES | melting point [°C]
1 | CCCNC(=O)[C@H](C)C[C@H](O)[C@H](CC1CCCCC1)NC(=O)[C@H](Cc1cscn1)NC(=O)[C@@H](CC(=O)N(C)Cc1ccccc1)Cc1ccccc1 | 115 to 118
2 | COc1cc2c(Cl)c(C#N)cnc2cc1OCC1CCN(C)CC1 | 166 to 168
3 | CNC(=O)Nc1snc(N(C)C)c1C#N | 240 to 241
4 | OC(c1ccc(F)cc1)(c1ccc(F)cc1)C1CCNC1 (stereo not given) | 152 to 153
5 | Clc1ccc2c(c1)c(-c1ccccc1)nn1cnnc21 | 189 to 190
6 | Cc1ccc(-c2ccccc2C2=NC(C)(C)CO2)cc1 | 56 to 59
7 | NCC1Cc2cc(-c3ccccc3)cc(-c3ccccc3Cl)c2O1 (stereo not given) | > 250
8 | CCOC(=O)N1CC[C@H](N(Cc2ccccc2)Cc2ccccc2)[C@H](OC)C1 (relative stereo) | 95.2
9 | O=C(O)C(CC1CC2CCN1CC2)(c1ccccc1)c1ccccc1 (stereo not given) | 180 to 185
10 | Brc1cc(-c2ccncc2)cnc1Br | 150 to 155
11 | C=CCn1c(C)nc2c1CCCC2=O | 78
12 | O=C(O)c1nn(-c2ccc(Cl)cc2Cl)c2c1CCc1sc(Br)cc1-2 | 235 to 237
13 | N#Cc1cc(Br)ccc1NC(=O)c1cccc(S(=O)(=O)N2CCOCC2)c1 | 185 to 187
14 | CCOC(=O)CSc1nc2cc([N+](=O)[O-])ccc2[nH]1 | 114
15 | COc1ccc2c(c1)S(=O)(=O)N(C(OC(=O)c1sccc1Cl)C(C)C)C2=O (stereo not given) | 138 to 140
16 | Cc1ccc(NC(=O)c2ccc(O)c(N)c2)cc1C | 220 to 223
17 | O=C1CCCC2=C1C(c1ccccc1)C1=C(CCCC1)N2 (stereo not given) | 252 to 254
18 | O=C1NCN(c2ccccc2)C12CCN(CCCOc1ccc(F)cc1Cl)CC2 | 154 to 155
19 | Cc1nnc2n1-c1ccc(Cl)cc1C(c1ccccc1)S2 (stereo not given) | 237
20 | C=CCSc1ccc(Oc2ccccc2)nn1 | 71 to 73
21 | COc1cccc(C=Cc2nc3c(s2)N(S(C)(=O)=O)CCC3)c1OC | 134 to 136
22 | OCCCCNC1CCCCC1 | 48 to 50
23 | O=C(OC1CCCCC1)c1ncn2c1[C@@H]1CCN1C(=O)c1c(I)cccc1-2 | 124 to 125
24 | OC1CSC(Oc2ccccn2)C(O)C1O (stereo not given) | 196
25 | Fc1ccc(-c2[nH]nc(Br)c2-c2ccncc2)cc1F | 285 to 290
26 | Cc1cc(N2CCN(c3c(C)c(C)c4c(c3C)CC(C)(C)O4)CC2)n2nccc2n1 | 180 to 182
27 | O=c1c(CO)cc(-c2ccc3c(c2)CCO3)nn1CC1CC1 | 115 to 117

Next, values leading:

Row | melting point [°C] | SMILES
28 | 178 to 179 | COc1cc(NC(NC(C)C(C)(C)C)=C(C#N)S(=O)(=O)c2ccc(Cl)cc2)cc(OC)c1 (stereo not given)
29 | 101 to 102 | CC(C)(C)c1ccc(/C=N/OCCCOc2ccc(CCC(=O)O)cc2)cc1
30 | 110 to 119 | COc1cc(N2CCC(N3CCOCC3)C2)ccc1Nc1ncc2ccc(-c3ccccc3N(C)S(C)(=O)=O)n2n1 (stereo not given)
31 | 86 to 87 | CC(C)(C)C(=O)Nc1cc(Cl)ccn1
32 | > 260 | CC(C)(C)n1cc(C(=O)O)c(=O)c2cc(F)c(F)cc21
33 | 79 to 80 | CC(C)(C)[Si](n1cc(Br)c2ncccc21)(C(C)(C)C)C(C)(C)C
34 | 138 to 140 | CCCS(=O)C1(S(=O)(=O)NC(C)(C)C)C=CC=CN1 (stereo not given)
35 | 131 to 132 | CN(C)S(=O)(=O)n1c(C(=S)NC(=O)NS(=O)(=O)c2ccccc2Cl)nc2cc(Cl)c(Cl)cc21
36 | 243 to 244 | CCC(C)(CC)c1cc(NC(=O)c2c(OC)cccc2OC)sn1
37 | 92 to 93 | CCCc1c2c(c(OC)c3c(=O)cc(C(=O)OC)oc13)CCCC2
38 | 172 to 173 | Cc1ccnc2c1N=C(S(C)(=O)=O)c1cccnc1N2C1CC1
39 | 130 to 132 | CCOC(=O)C(C#N)C1(C#N)C(=O)N(Cc2ccc(F)cc2)c2c(C)cccc21 (stereo not given)
40 | 168 to 170 | Cc1ccc(S(=O)(=O)OC2=C(Br)C(=O)c3ccc4c(c3C2=O)CCC(C)(C)O4)cc1
